According to PubChem BioAssay AID1963986 (Molecular Pharmacology Branch, DTP, NCI, 2024):

Test system: 171881-019-R-J1-PDC tumor spheroid viability
Assay: Anticancer human tumor 171881-019-R-J1-PDC patient-derived invasive breast carcinoma cell line growth inhibition [PI3K]
Conditions: spheroids with HUVEC and MSC; for IC50: curve of first compound; for viability, T/C: stronger effect = lower value
Outline: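 Multi-cell spheroids combine tumor cells with HUVEC and human MSCs, treated with targeted agents alone or with inavolisib, alpelisib, duvelisib or copanlisib. Concentrations fall in half-log steps from at or near clinical Cmax, or from 10 microM where Cmax is unknown; viability read-out.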

[1] = second compound 0.00316 µM, first compound 0.0316 µM
[2] = second compound 0.00316 µM, first compound 0.1 µM
[3] = second compound 0.01 µM, first compound 0.0316 µM
[4] = second compound 0.01 µM, first compound 0.1 µM
[5] = second compound 0.0316 µM, first compound 0.0316 µM
[6] = second compound 0.0316 µM, first compound 0.1 µM
[7] = second compound 0.1 µM, first compound 0.0316 µM
[8] = second compound 0.1 µM, first compound 0.1 µM
[9] = second compound 0.316 µM, first compound 0.0316 µM
[10] = second compound 0.316 µM, first compound 0.1 µM
[11] = second compound 1 µM, first compound 0.0316 µM
[12] = second compound 1 µM, first compound 0.1 µM
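Further: spheroids exposed to compound for 7 days before viability read.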
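Wherever viability, T/C is given: 100% = DMSO vehicle-treated spheroids.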

## Cn1ncc(Cl)c1-c1cc(C(=O)NC(CN)Cc2cccc(F)c2)sc1Cl (centres undefined) + COc1c(OCCCN2CCOCC2)ccc2c3n(c(=NC(=O)c4cnc(N)nc4)nc12)CCN3
Second compound 0.00316 µM
  IC50: 74.5 nM
Second compound 0.01 µM
  IC50: < 31.6 nM
Second compound 0.0316 µM
  IC50: < 31.6 nM
Second compound 0.1 µM
  IC50: < 31.6 nM
Second compound 0.316 µM
  IC50: < 31.6 nM
Second compound 1 µM
  IC50: < 31.6 nM
[1]
  viability, T/C: 63.8%
[2]
  viability, T/C: 46.4%
Second compound 0.00316 µM, first compound 0.316 µM
  viability, T/C: 27.6%
Second compound 0.00316 µM, first compound 1 µM
  viability, T/C: 17.7%
Second compound 0.00316 µM, first compound 3.16 µM
  viability, T/C: 11.5%
Second compound 0.00316 µM, first compound 10 µM
  viability, T/C: 3.72%
[3]
  viability, T/C: 48.2%
[4]
  viability, T/C: 37.2%
Second compound 0.01 µM, first compound 0.316 µM
  viability, T/C: 23.7%
Second compound 0.01 µM, first compound 1 µM
  viability, T/C: 16.4%
Second compound 0.01 µM, first compound 3.16 µM
  viability, T/C: 9.82%
Second compound 0.01 µM, first compound 10 µM
  viability, T/C: 4.66%
[5]
  viability, T/C: 24.1%
[6]
  viability, T/C: 22%
Second compound 0.0316 µM, first compound 0.316 µM
  viability, T/C: 15.6%
Second compound 0.0316 µM, first compound 1 µM
  viability, T/C: 11.3%
Second compound 0.0316 µM, first compound 3.16 µM
  viability, T/C: 7.85%
Second compound 0.0316 µM, first compound 10 µM
  viability, T/C: 4.52%
[7]
  viability, T/C: 8.56%
[8]
  viability, T/C: 6.38%
Second compound 0.1 µM, first compound 0.316 µM
  viability, T/C: 6.32%
Second compound 0.1 µM, first compound 1 µM
  viability, T/C: 5.69%
Second compound 0.1 µM, first compound 3.16 µM
  viability, T/C: 4.46%
Second compound 0.1 µM, first compound 10 µM
  viability, T/C: 2.26%
[9]
  viability, T/C: 2.05%
[10]
  viability, T/C: 1.87%
Second compound 0.316 µM, first compound 0.316 µM
  viability, T/C: 1.74%
Second compound 0.316 µM, first compound 1 µM
  viability, T/C: 1.64%
Second compound 0.316 µM, first compound 3.16 µM
  viability, T/C: 1.47%
Second compound 0.316 µM, first compound 10 µM
  viability, T/C: 1.92%
[11]
  viability, T/C: 0.97%
[12]
  viability, T/C: 1.14%
Second compound 1 µM, first compound 0.316 µM
  viability, T/C: 1.37%
Second compound 1 µM, first compound 1 µM
  viability, T/C: 0.72%
Second compound 1 µM, first compound 3.16 µM
  viability, T/C: 0.77%
Second compound 1 µM, first compound 10 µM
  viability, T/C: 0.22%

## Cn1ncnc1[C@H]1c2n[nH]c(=O)c3cc(F)cc(c23)N[C@@H]1c1ccc(F)cc1 + COc1c(OCCCN2CCOCC2)ccc2c3n(c(=NC(=O)c4cnc(N)nc4)nc12)CCN3
Second compound 0.00316 µM
  IC50: > 100 nM
Second compound 0.01 µM
  IC50: < 0.316 nM
Second compound 0.0316 µM
  IC50: < 0.316 nM
Second compound 0.1 µM
  IC50: < 0.316 nM
Second compound 0.316 µM
  IC50: < 0.316 nM
Second compound 1 µM
  IC50: < 0.316 nM
Second compound 0.00316 µM, first compound 0.000316 µM
  viability, T/C: 65.8%
Second compound 0.00316 µM, first compound 0.001 µM
  viability, T/C: 69.5%
Second compound 0.00316 µM, first compound 0.00316 µM
  viability, T/C: 62.6%
Second compound 0.00316 µM, first compound 0.01 µM
  viability, T/C: 75%
[1]
  viability, T/C: 59.7%
[2]
  viability, T/C: 53.5%
Second compound 0.01 µM, first compound 0.000316 µM
  viability, T/C: 43.3%
Second compound 0.01 µM, first compound 0.001 µM
  viability, T/C: 47.2%
Second compound 0.01 µM, first compound 0.00316 µM
  viability, T/C: 43.6%
Second compound 0.01 µM, first compound 0.01 µM
  viability, T/C: 49.6%
[3]
  viability, T/C: 41.7%
[4]
  viability, T/C: 42%
Second compound 0.0316 µM, first compound 0.000316 µM
  viability, T/C: 24.2%
Second compound 0.0316 µM, first compound 0.001 µM
  viability, T/C: 24.2%
Second compound 0.0316 µM, first compound 0.00316 µM
  viability, T/C: 21.8%
Second compound 0.0316 µM, first compound 0.01 µM
  viability, T/C: 24.2%
[5]
  viability, T/C: 23.6%
[6]
  viability, T/C: 20.2%
Second compound 0.1 µM, first compound 0.000316 µM
  viability, T/C: 7.63%
Second compound 0.1 µM, first compound 0.001 µM
  viability, T/C: 7.42%
Second compound 0.1 µM, first compound 0.00316 µM
  viability, T/C: 8.65%
Second compound 0.1 µM, first compound 0.01 µM
  viability, T/C: 7.87%
[7]
  viability, T/C: 7.14%
[8]
  viability, T/C: 6.55%
Second compound 0.316 µM, first compound 0.000316 µM
  viability, T/C: 2.06%
Second compound 0.316 µM, first compound 0.001 µM
  viability, T/C: 1.56%
Second compound 0.316 µM, first compound 0.00316 µM
  viability, T/C: 1.67%
Second compound 0.316 µM, first compound 0.01 µM
  viability, T/C: 1.78%
[9]
  viability, T/C: 2.25%
[10]
  viability, T/C: 1.69%
Second compound 1 µM, first compound 0.000316 µM
  viability, T/C: 1.89%
Second compound 1 µM, first compound 0.001 µM
  viability, T/C: 1.19%
Second compound 1 µM, first compound 0.00316 µM
  viability, T/C: 1.15%
Second compound 1 µM, first compound 0.01 µM
  viability, T/C: 1.21%
[11]
  viability, T/C: 1.01%
[12]
  viability, T/C: 0.97%
